Source: patent US7812009B2, “Mastitis treatment” (Intervet International B.V., priority 2002, dated 2010)

Experiments:
[1] = system: experimental Streptococcus uberis mastitis; experiment: Rectal temperature in cows with experimental Streptococcus uberis mastitis; format: in vivo; conditions: cephapirin alone, intramammary, 4 infusions
Method: Eighteen lactating cows were intramammarily inoculated into the two left quarters with Streptococcus uberis (±1000 CFU/quarter). At 2 days after challenge, when all cows had clinical signs of mastitis (i.e. quarter foremilk modification and/or udder swelling), cows were allotted to three groups of six cows each, to produce groups with similar parity and milk production.
One group was treated with cephapirin alone (group 1), one group was treated with cephapirin and 20 mg prednisolone (group 2) and one group was non-treated (group 3). Cows included in group 1 and group 2 were treated in the 2 left inoculated quarters at day 2 after challenge. The first treatment was applied after a morning milking, and the following three infusions were performed immediately after the next 3 consecutive milkings. Cows of group 3 were left untreated. […] The rectal temperature was determined from day 9 before first treatment up to day 19 after first treatment.

[2] = system: leukocytes in blood; experiment: Number of leukocytes in blood from cows with endotoxin-induced mastitis; format: in vivo
Method: (§1) Fifteen cows were allotted to three groups of 5 cows each, according to milk production and parity. Cows were intramammary infused into 2 homo-lateral quarters with 100 μg Escherichia coli endotoxin (purified lipopolysacchide (LPS) obtained from E. coli 0111:B4) in 20 ml saline.
(§2) Cows were treated with the contents of one injector per endotoxin infused quarter when the first signs of clinical mastitis were evident, i.e. approximately 2 hours after endotoxin infusion. One group was treated with 300 mg of cephapirin, one group with 300 mg of cephapirin and 20 mg of prednisolone and one group was the non-treated control. The test preparations contained cephapirin and prednisolone in an oil carrier.
(§3) Blood samples were collected from the jugular vein at 24 hours before endotoxin infusion and 1.5, 8, 48 and 72 hours after endotoxin infusion.

[3] = system: blood PMN; experiment: Chemotaxis of blood PMN from cows with endotoxin-induced mastitis; format: in vivo
Method: as §1, §2, §3

[4] = system: cows with endotoxin-induced mastitis; experiment: Udder scores (local inflammation) in cows with E. coli endotoxin-induced mastitis; format: in vivo
Method: Twenty-four cows were allotted to four groups of 6 cows each, according to milk production and parity. All cows were intramammary infused into two homo-lateral quarters with 100 μg Escherichia coli endotoxin (purified lipopolysacchide (LPS) obtained from E. coli 0111:B4) in 20 ml saline.
The test preparations contained cephapirin and prednisolone in an oily carrier. Four different dose levels of prednisolone were tested: 0 mg (group 1), 10 mg (group 2), 20 mg (group 3) and 40 mg (group 4) per injector (8 g) together with 200 mg of cephapirin sodium.
Cows were treated with the contents of one injector per endotoxin infused quarter when the first signs of clinical mastitis were evident, i.e. 1.5 hours after endotoxin infusion. The next three treatments were infused immediately after consecutive afternoon or morning milkings (12 hours interval) during 2 days. In total four treatments were administered.
Udder scores: The condition and swelling of quarters were determined by palpation once daily after morning milking from day−7 to day−1 relative to endotoxin infusion and twice daily after milkings from day+1 to day+6 relative to endotoxin infusion. The day of endotoxin infusion, swelling of quarters was assessed by palpation approximately every half hour during ±12.5 hours after infusion. The scoring system provides scores 0 to 4. Higher values refer to increased and more severe signs of local inflammation.

[5] = system: pathogen identified on day 0 (clinical mastitis); experiment: Field study: bacteriological cure rate in clinical mastitis; format: in vivo, cows; conditions: higher dosage of prednisolone (20 mg) versus 10 mg, field conditions
Method: Lactating cows with clinical mastitis in a single quarter (571) were treated intramammarily either with a composition A (n=260) comprising 300 mg cefapirin sodium and 20 mg of prednisolone four times with a 12 h interval or with composition B (n=254) comprising 200 mg amoxicilline, 50 mg clavulanic acid and 10 mg of prednisolone three times with a 12 h interval. These administration schedules correspond to the recommended dosage of the products. The efficacy of the treatment was determined by the bacteriological cure rate (elimination of pathogen identified on day 0) at day 14, and day 21 and the clinical cure rate (affected quarter produces normal milk and no signs of clinical mastitis anymore) at days 14 and 21.
Bacteriological cure: A cow was considered as bacteriologically cured when, both on Days 14 and 21, the milk sample from the affected quarter was free from pathogen(s) present at day 0 (at admission prior to treatment). For clinical mastitis, treatment were considered as a failure for which cows were not yet clinically cured on the first post-treatment sampling (Day 14). […]
The parameters for efficacy are the outcome variables “bacteriological cure” (cure/non-cure) and “clinical cure” (cure/non-cure). The results in Table 3 and FIG. 6 are expressed as numbers and percentages of cows cured.

[6] = system: non-bacterial E. coli endotoxin induced clinical mastitis; conditions: intramammary infusion of 40 mg/unit dose; experimental conditions; cited from earlier work
[7] = 1.5 hours relative to endotoxin infusion (before first treatment)
[8] = 8 hours relative to endotoxin infusion, treatments at 2, 8, 24 and 36 hours
[9] = 24 hours relative to endotoxin infusion, treatments at 2, 8, 24 and 36 hours
[10] = 72 hours relative to endotoxin infusion, treatments at 2, 8, 24 and 36 hours
[11] = −24 hours relative to endotoxin infusion (before treatment)

| SMILES | average rectal temperature after treatment [1] | Number of leukocytes in blood (mean) [2, 7] | Number of leukocytes in blood (mean) [2, 8] | Number of leukocytes in blood (mean) [2, 9] | Number of leukocytes in blood (mean) [2, 10] | Number of leukocytes in blood (mean) [2, 11] | Chemotactic PMN (mean) [3, 7] | Chemotactic PMN (mean) [3, 8] | Chemotactic PMN (mean) [3, 9] | Chemotactic PMN (mean) [3, 10] | Chemotactic PMN (mean) [3, 11] | dose effect relation of prednisolone and sum of udder scores ([4]; 0, 10, 20, 40 mg prednisolone per injector with 200 mg cephapirin sodium, higher dosages gave lower sum of udder scores) | sum of udder scores compared to placebo quarters ([4]; 20 mg prednisolone per injector with 200 mg cephapirin sodium, intramammary, 4 treatments, from 8 hours post infusion up to evening milking of day 5) | sum of udder scores compared to placebo quarters (0 mg prednisolone) and quarters treated with 10 mg prednisolone ([4]; 40 mg prednisolone per injector with 200 mg cephapirin sodium, intramammary, 4 treatments, from 8 hours post infusion up to evening milking of day 5) | influence on the bacteriological cure rate [5] | effects on local and systemic inflammatory signs [6] |
| --- | --- | --- | --- | --- | --- | --- | --- | --- | --- | --- | --- | --- | --- | --- | --- | --- |
| CC(=O)OCC1=C(C(=O)O)N2C(=O)[C@@H](NC(=O)CSc3ccncc3)[C@H]2SC1 [Cephapirin] | decreased slowly | 8157 | 6329 | 12148 | 11317 | 8217 | 1.404e+06 mL⁻¹ | 142000 mL⁻¹ | 650000 mL⁻¹ | 135000 mL⁻¹ | 2.115e+06 mL⁻¹ |  |  |  |  |  |
| C[C@]12C=CC(=O)C=C1CC[C@@H]1[C@@H]2[C@@H](O)C[C@@]2(C)[C@H]1CC[C@]2(O)C(=O)CO [prednisolone, (11β)-11,17,21-trihydroxypregna-1,4-diene-3,20-dione] |  |  |  |  |  |  |  |  |  |  |  | clear dose effect relation | lower sum of udder scores | significantly lower | did not negatively influence | improved effects |
